# Data as given in patent US6645755B1, “VECTOR MODIFIED BY SEQUENCE CODING FOR A SEQUENCE OF AMINO ACIDS CONTAINED IN A MAMMALIAN PROTEIN HAVING THE BIOLOGICAL ACTIVITY OF A MEMBRANE RECEPTOR, EXPRESSION OF THIS SEQUENCE IN TRANSFORMED UNICELLULAR CULTURES BY MEANS OF THIS VECTOR, PROCEDURE FOR STUDYING LIGANDS RECOGNIZING THESE RECEPTORS” (Centre National de la Recherche Scientifique, priority 1988, dated 2003).
# Where two headings read alike, the source gives them in different places.
# Tests used:
# mamm. β1AR = settings: reference mammalian tissues, cited from earlier work; for mamm. β1/β2: Ki ratio
# mamm. β2AR = settings: reference mammalian tissues; cited from earlier work
# Huβ1AR [1] = experiment: Competition binding against ICYP on E. coli expressing Huβ1AR (pSMLβ1); settings: ratio of Ki on Huβ1AR and Huβ2AR expressed in E. coli
# Huβ2AR = Huβ2AR (Homo sapiens, UniProt P07550); experiment: Competition binding against ICYP on E. coli expressing Huβ2AR (pSMLβ2)
# Huβ1AR [2] = target: Huβ1AR (Homo sapiens, UniProt P08588); experiment: Competition binding against ICYP on E. coli expressing Huβ1AR (pSMLβ1)
# [3] = target: T1, human β2-adrenergic receptor (Homo sapiens, UniProt P07550); experiment: cell-based; type: binding
# T1 construct: extending from the NcoI site to the DraI site which contained the coding region for the human β2-adrenergic receptor; β-galactosidase (lacZ product of λgt11, fused at the EcoRI site near the 3' end of lacZ) (N); linker Asp-Asp-Pro (acid-cleavable) (N); expressed in transfected cells; host or cells: E. coli Y1089 lysogenized with recombinant λgt11
# Chain of Huβ1AR (Homo sapiens, UniProt P08588) (P08588 58-377 limits assumed): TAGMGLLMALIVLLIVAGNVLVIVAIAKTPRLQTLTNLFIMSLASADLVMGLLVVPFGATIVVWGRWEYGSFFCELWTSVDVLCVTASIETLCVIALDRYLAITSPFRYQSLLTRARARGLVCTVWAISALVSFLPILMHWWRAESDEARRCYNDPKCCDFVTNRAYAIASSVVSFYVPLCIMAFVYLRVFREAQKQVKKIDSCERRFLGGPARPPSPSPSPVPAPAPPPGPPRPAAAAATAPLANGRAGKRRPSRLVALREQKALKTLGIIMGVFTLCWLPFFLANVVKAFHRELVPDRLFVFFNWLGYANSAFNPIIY
Compound,mamm. β1/β2 (mamm. β1AR),Ki (mamm. β1AR) [nM],Ki (mamm. β2AR) [nM],E. coli Kiβ1/Kiβ2 (Huβ1AR [1]),"Ki (Huβ2AR; read-out: Ki E. coli Huβ2AR, 10 pM ICYP as radioligand, Ki calculated from IC50) [nM]","Ki (Huβ1AR [2]; read-out: Ki E. coli Huβ1AR, 10 pM ICYP as radioligand, Ki calculated from IC50) [nM]",Ki [3] [nM],Ki (Huβ1AR [2]) [nM],Ki (Huβ2AR) [nM]
CS(=O)(=O)O.Cn1cc(C(F)(F)F)nc1-c1ccc(OCC(O)CNCCOc2ccc(O)c(C(N)=O)c2)cc1 (centres unmarked) [CGP 20712-A],"0,003",3.24,982,"0,0005",,,,,
"Cc1ccc(OCC(O)C(C)NC(C)C)c2c1CCC2 (centres unmarked) [ICI 118,551]",130,86,,,,,,,
OC(CNCC(O)C1CCc2cc(F)ccc2O1)C1CCc2cc(F)ccc2O1 (centres unmarked) [R67555],"0,02",0.9,46,,3.83,,,,
CC(C)(C)NCC(O)c1cc(Cl)c(N)c(Cl)c1 (centres unmarked) [clembuterol],"5,1",71,14,,,37,,,
CNC[C@H](O)c1ccc(O)c(O)c1 [epinephrine],"4,7",1900,403,,,,,,
NC[C@H](O)c1ccc(O)c(O)c1 [norepinephrine],"1,49",2800,1880,,,,,,
CCC(NC(C)C)C(O)c1ccc(O)c2[nH]c(=O)ccc12 (centres unmarked) [procaterol],,,,"84,1",,,40 ± 8,4650,55.3
CC(C)NCC(O)COc1cccc2ccccc12 (centres unmarked) [propranolol],"5,5",,,,,,,,
CC(C)(Cc1ccccc1)NCC(O)c1ccc(O)c(NS(C)(=O)=O)c1 (centres unmarked) [zinterol],"8,1",170,21,"18,4",,,,168,9.14
(−) epinephrine,,,,,,,4700 ± 1400,,
